In patent publication US12258329B2 (Merck Sharp & Dohme LLC, priority 2018, dated 2025):

The compounds below were run on infected PBMCs (VSV-G pseudotyped HIV virus VSV-G/pNLG1-P2A-ΔEnv) (assay: cells). Conditions: Homo sapiens, PBMC, read-out: TACK EC50.
Type: cell-based, human

Row | Structure (SMILES) | EC50 [nM]
1 | Cc1nc(C)c(Cn2cnc(C(F)(F)C(F)(F)F)c(Oc3cccc(C#N)c3F)c2=O)c(=O)[nH]1 [Example 85, 3-((1-((2,4-dimethyl-6-oxo-1,6-dihydropyrimidin-5-yl)methyl)-6-oxo-4-(perfluoroethyl)-1,6-dihydropyrimidin-5-yl)oxy)-2-fluorobenzonitrile] | 441
2 | Cc1nc[nH]c(=O)c1Cn1cnc(C(F)(F)C(F)F)c(Oc2cc(C(F)F)cc(C#N)c2C)c1=O [Example 79, 5-(difluoromethyl)-2-methyl-3-((1-((4-methyl-6-oxo-1,6-dihydropyrimidin-5-yl)methyl)-6-oxo-4-(1,1,2,2-tetra-fluoroethyl)-1,6-dihydropyrimidin-5-yl)oxy)benzonitrile] | 460
3 | Cc1nc(C)c(Cn2cnc(C(F)(F)C(F)(F)F)c(Oc3cc(Cl)cc(C#N)c3F)c2=O)c(=O)[nH]1 [Example 87, 5-chloro-3-((1-((2,4-dimethyl-6-oxo-1,6-dihydropyrimidin-5-yl)methyl)-6-oxo-4-(perfluoroethyl)-1,6-dihydropyrimidin-5-yl)oxy)-2-fluorobenzonitrile] | 218
4 | Cc1cc(C#N)c(F)c(Oc2c(C(F)(F)C(F)F)ncn(Cc3c(C)nc(C)[nH]c3=O)c2=O)c1 [Example 40, 3-((1-((2,4-dimethyl-6-oxo-1,6-dihydropyrimidin-5-yl)methyl)-6-oxo-4-(1,1,2,2-tetrafluoroethyl)-1,6-dihydropyrimidin-5-yl)oxy)-2-fluoro-5-methylbenzonitrile] | 198
5 | Cc1nc(N)c(Cn2cnc(C(F)(F)F)c(Oc3cc(C(F)F)cc(C#N)c3C)c2=O)c(=O)[nH]1 [Example 60, 3-((1-((4-amino-2-methyl-6-oxo-1,6-dihydropyrimidin-5-yl)methyl)-6-oxo-4-(trifluoromethyl)-1,6-dihydropyrimidin-5-yl)oxy)-5-(difluoromethyl)-2-methylbenzonitrile] | 228
6 | Cc1nc(C)c(Cn2cnc(C(C)(F)F)c(Oc3cc(C(F)F)cc(C#N)c3F)c2=O)c(=O)[nH]1 [Example 15, 3-((4-(1,1-difluoroethyl)-1-((2,4-dimethyl-6-oxo-1,6-dihydropyrimidin-5-yl)methyl)-6-oxo-. 1,6-dihydropyrimidin-5-yl)oxy)-5-(difluoromethyl)-2-fluorobenzonitrile] | 245
7 | COc1cc(C#N)cc(C)c1Oc1c(C(F)(F)C(F)(F)F)ncn(Cc2c(C)nc(C)[nH]c2=O)c1=O [Example 76, 4-((1-((2,4-dimethyl-6-oxo-1,6-dihydropyrimidin-5-yl)methyl)-6-oxo-4-(perfluoroethyl)-1,6-dihydropyrimidin-5-yl)oxy)-3-methoxy-5-methylbenzonitrile] | 498
8 | Cc1nc(C)c(Cn2cnc(C(C)F)c(Oc3c(C)cc(C#N)cc3C)c2=O)c(=O)[nH]1 (single isomer, unassigned) [Example 43, (S) or (R)-4-((1-((2,4-dimethyl-6-oxo-1,6-dihydropyrimidin-5-yl)methyl)-4-(1-fluoroethyl)-6-oxo-1,6-dihydropyrimidin-5-yl)oxy)-3,5-dimethylbenzonitrile] | 438
9 | Cc1nc(CO)[nH]c(=O)c1Cn1cnc(C(F)(F)C(F)F)c(Oc2cc(Cl)cc(C#N)c2F)c1=O [Example 45, 5-chloro-2-fluoro-3-((1-((2-(hydroxymethyl)-4-methyl-6-oxo-1,6-dihydropyrimidin-5-yl)methyl)-6-oxo-4-(1,1,2,2-tetrafluoroethyl)-1,6-dihydropyrimidin-5-yl)oxy)benzonitrile] | 257
10 | Cc1nc(C)c(Cn2cnc(C(F)(F)C(F)(F)F)c(Oc3c(C)cc(C#N)cc3Cl)c2=O)c(=O)[nH]1 [Example 95, 3-chloro-4-((1-((2,4-dimethyl-6-oxo-1,6-dihydropyrimidin-5-yl)methyl)-6-oxo-4-(perfluoroethyl)-1,6-dihydropyrimidin-5-yl)oxy)-5-methylbenzonitrile] | 179
11 | Cc1nc(C)c(Cn2cnc(C(C)F)c(Oc3cc(C(F)F)cc(C#N)c3F)c2=O)c(=O)[nH]1 (single isomer, unassigned) [Example 32, (S) or (R)-5-(difluoromethyl)-3-((1-((2,4-dimethyl-6-oxo-1,6-dihydropyrimidin-5-yl)methyl)-4-(1-fluoroethyl)-6-oxo-1,6-dihydropyrimidin-5-yl)oxy)-2-fluorobenzonitrile] | 171
12 | Cc1nc(C)c(Cn2cnc(C(C)F)c(Oc3c(C)cc(C#N)cc3Cl)c2=O)c(=O)[nH]1 (single isomer, unassigned) [Example 18, (S) or (R)-3-chloro-4-((1-((2,4-dimethyl-6-oxo-1,6-dihydropyrimidin-5-y1)methyl)-4-(1-fluoroethyl)-6-oxo-1,6-dihydropyrimidin-5-yl)oxy)-5-methylbenzonitrile] | 129
13 | Cc1nc(C)c(Cn2cnc(C(C)F)c(Oc3cc(C(F)F)cc(C#N)c3C)c2=O)c(=O)[nH]1 (single isomer, unassigned) [Example 28] | 208
14 | Cc1nc(C(C)O)[nH]c(=O)c1Cn1cnc(C(F)(F)C(F)F)c(Oc2cc(Cl)cc(C#N)c2F)c1=O (single isomer, unassigned) [Example 44] | 333
15 | Cc1nc(C)c(Cn2cnc(C(F)(F)C(F)(F)F)c(Oc3c(Cl)cc(C#N)cc3Cl)c2=O)c(=O)[nH]1 [Example 96, 3,5-dichloro-4-((1-((2,4-dimethyl-6-oxo-1,6-dihydropyrimidin-5-yl)methyl)-6-oxo-4-(perfluoroethyl)-1,6-dihydropyrimidin-5-yl)oxy)benzonitrile] | 367
16 | Cc1nc(C)c(Cn2cnc(C(F)(F)C(F)(F)F)c(Oc3cc(Br)cc(C#N)c3)c2=O)c(=O)[nH]1 [Example 86, 3-bromo-5-((1-((2,4-dimethyl-6-oxo-1,6-dihydropyrimidin-5-yl)methyl)-6-oxo-4-(perfluoroethyl)-1,6-dihydro-pyrimidin-5-yl)oxy)benzonitrile] | 473
17 | Cc1nc(C)c(Cn2cnc(C(F)(F)C(F)(F)F)c(Oc3cc(Br)cc(C#N)c3Cl)c2=O)c(=O)[nH]1 [Example 82, 5-bromo-2-chloro-3-((1-((2,4-dimethyl-6-oxo-1,6-dihydro-pyrimidin-5-yl)methyl)-6-oxo-4-(perfluoroethyl)-1,6-dihydro-pyrimidin-5-yl)oxy)benzonitrile] | 531
18 | Cc1nc(C)c(Cn2cnc(C(C)(F)F)c(Oc3c(Cl)cc(C#N)cc3Cl)c2=O)c(=O)[nH]1 [Example 13, 3,5-dichloro-4-((4-(1,1-difluoroethyl)-1-((2,4-dimethyl-6-oxo-1,6-dihydropyrimidin-5-yl)methyl)-6-oxo-1,6-dihydropyrimidin-5-yl)oxy) benzonitrile] | 395
19 | Cc1nc(C)c(Cn2cnc(C(F)(F)C(F)F)c(Oc3c(C)cc(C#N)cc3C)c2=O)c(=O)[nH]1 [Example 75, 4-((1-((2,4-dimethyl-6-oxo-1,6-dihydropyrimidin-5-yl)methyl)-6-oxo-4-(1,1,2,2-tetrafluoroethyl)-1,6-dihydropyrimidin-5-yl)oxy)-3,5-dimethylbenzonitrile] | 209
20 | Cc1nc(CCCO)[nH]c(=O)c1Cn1cnc(C(F)(F)C(F)F)c(Oc2cc(C(F)F)cc(C#N)c2C)c1=O [Example 49, 5-(difluoromethyl)-3-((1-((2-(3-hydroxypropyl)-4-methyl-6-oxo-1,6-dihydropyrimidin-5-yl)methyl)-6-oxo-4-(1,1,2,2-tetrafluoroethyl)-1,6-dihydropyrimidin-5-yl)oxy)-2-methylbenzonitrile] | 278
21 | Cc1nc(C)c(Cn2cnc(C(F)(F)C(F)(F)F)c(Oc3c(C)cc(C#N)cc3C)c2=O)c(=O)[nH]1 [Example 78, 4-((1-((2,4-dimethyl-6-oxo-1,6-dihydropyrimidin-5-yl)methyl)-6-oxo-4-(perfluoroethyl)-1,6-dihydropyrimidin-5-yl)oxy)-3,5-dimethylbenzonitrile] | 156
22 | Cc1nc(C)c(Cn2cnc(C(C)(F)F)c(Oc3cc(Cl)cc(C#N)c3C)c2=O)c(=O)[nH]1 [Example 4, 5-chloro-3-((4-(1,1-difluoroethyl)-1-((2,4-dimethyl-6-oxo-1,6-dihydropyrimidin-5-yl)methyl)-6-oxo-1,6-dihydropyrimidin-5-yl)oxy)-2-methylbenzonitrile] | 412
23 | CCc1nc(C)[nH]c(=O)c1Cn1cnc(C(F)(F)C(F)(F)F)c(Oc2cc(C(F)F)cc(C#N)c2C)c1=O [Example 63, 5-(difluoromethyl)-3-((1-((4-ethyl-2-methyl-6-oxo-1,6-dihydropyrimidin-5-yl)methyl)-6-oxo-4-(perfluoroethyl)-1,6-dihydropyrimidin-5-yl)oxy)-2-methylbenzonitrile] | 276
24 | Cc1nc(C)c(Cn2cnc(C(C)(F)F)c(Oc3c(C)cc(C#N)cc3Cl)c2=O)c(=O)[nH]1 [Example 12, 3-chloro-4-((4-(1,1-difluoroethyl)-1-((2,4-dimethyl-6-oxo-1,6-dihydropyrimidin-5-y1)methyl)-6-oxo-1,6-dihydropyrimidin-5-yl)oxy)-5-methylbenzonitrile] | 200
25 | Cc1nc(C)c(Cn2cnc(C(F)(F)F)c(Oc3cc(Br)cc(C#N)c3Cl)c2=O)c(=O)[nH]1 [Example 89, 5-bromo-2-chloro-3-((1-((2,4-dimethyl-6-oxo-1,6-dihydro-pyrimidin-5-yl)methyl)-6-oxo-4-(trifluoromethyl)-1,6-dihydropyrimidin-5-yl)oxy) benzonitrile] | 434

Same assay, conditions: read-out: TACK EC50

Row | Structure (SMILES) | EC50 [nM]
26 | COc1c(C#N)cc(C(F)F)cc1Oc1c(C(C)F)ncn(Cc2c(C)nc(C)[nH]c2=O)c1=O (single isomer, unassigned) [Example 35] | 351
27 | Cc1nc(C)c(Cn2cnc(C(C)F)c(Oc3cc(C(F)F)cc(C#N)c3F)c2=O)c(=O)[nH]1 (single isomer, unassigned) [Example 33, (R) or (S)-5-(difluoromethyl)-3-((1-((2,4-dimethyl-6-oxo-1,6-dihydropyrimidin-5-yl)methyl)-4-(1-fluoroethyl)-6-oxo-1,6-dihydropyrimidin-5-yl)oxy)-2-fluorobenzonitrile] | 208
28 | COc1c(C#N)cc(C(F)F)cc1Oc1c(C(C)F)ncn(Cc2c(C)nc(C)[nH]c2=O)c1=O (single isomer, unassigned) [Example 36] | 72.3
